Entries after “also recorded” stand apart in the source; their conditions may differ.
Assays:
E. coli = E. coli oxidative stress, colony forming units; assay type: cell-based; settings: EGTA 2500 μM during stress; 50 min 1 mM H2O2
Protocol: 2 loops of E. coli stationary-phase bacterial cells collected post seeding (80 μL from a culture grown for 12 hrs) on agar plates containing bactopeptone and allowing to grow for 24 hrs was collected in buffer. Bacterial cells were then stressed for 50 min using 1 mM hydrogen peroxide. Treatment is EGTA 2500 μM during stress. Cells were then washed in buffer. Following stress, bacteria was washed in buffer and then diluted 1:500 in MilliQ water and seeded onto agar plates containing bactopeptone and left at 37° C. overnight. This was followed by counting colony forming units (CFU) counted. Three repeats were performed.
Bacteria, E. coli, and yeast, S. pombi, were exposed to toxin hydrogen peroxide stress (stress is for 50 min 1 mM H2O2) with or without high doses (2500 μM; c.f. FIG. 2) of the chelating agent EGTA (inhibitor of the predicted weak spot of loss of calcium ion homeostasis in the cytosol) delivered during the stress.
Following stress, bacteria cells were then placed on agar plates and allowed to grow at 37° C. overnight and colony forming units (CFU) were then counted.

C. elegans = C. elegans movement analysis post stress; assay type: in vivo, Caenorhabditis elegans; settings: EGTA 2500 μM in liposomes 3 hrs prior stress; cold, heat, oxidative and toxin stress
Source text: Movement was scored according to an adapted methodology (from Herndon et al., 2002). Briefly, animals were marked as either: normal movement; or defective movement. Defective movement was defined as worms that are stationary unless touched with a pick, in which case they may only move a few […] forward before stopping again or they may not move at all. 100 animals were used per trial and the percentage of worms with defective movement was scored.
According to the protocol in Shibamura et al., 2009, drug was dissolved in MilliQ water and encapsulated in liposomes. Drug used was EGTA, at a final concentration of 2500 μM. Briefly, L-a-phosphatidylcholine (LαPC) was used to prepare liposomes by first dissolving LαPC in distilled water at the concentration of 96 mg/ml. A ×2 concentration of drug solution was mixed with LαPC to a 1:1 ratio and heated to 65° C. Drug-LαPC solution was then converted into liposomes using a mini-Avanti extruder a 100 nm pore size polycarbonate membrane. MilliQ water encapsulated in liposomes was used a as the empty vector control. Following preparation, 25 μl of the liposome drug solution was spread onto a 25 μl spot OP50 lawn on NGM plates and worms were then picked onto the plates.
The percentage of animals with this defective movement were scored post stress.

D. melanogaster = experiment: Drosophila cold/freeze stress survival; assay type: in vivo, Drosophila melanogaster; settings: fed 12 hrs food containing 2500 μM EGTA; 0 degrees for 10 min
Protocol: Animals were under standard culture conditions. On day 1 of adulthood, they were starved for 8 hrs, then fed 12 hrs+/−EGTA 2500 μM. Following this, the animals were moved to 0° C. for 10 min and then recovered and survival measured.
Fruit flies, Drosophila melanogaster, were likewise exposed to heat and cold stress. […]. Flies were starved for a short period of 8 hrs and then fed for 12 hrs yeast containing high doses of a calcium chelating agent to ensure an adequate amount of drug entered the animals; doses used were: 0 or 2500 μM EGTA. This was followed by cold/freeze stress, where animals were placed at 0° C. for 10 min, and then animals were scored for survival every 12 hrs. […] Thus, like with single celled yeast and bacteria and C. elegans, a full organism level protective effect of blocking the predicted weak spots associated with cell death necrosis was also seen in fruit flies.

[1] = test system: mouse organs (heart, brain, spleen organotypic slices); experiment: Mouse organotypic slices hypoxia stress, PI/DAPI staining; assay type: cell-based; settings: 2500 μM EGTA during stress, hypoxia 2.5 hrs in N2 gas bubbled buffer
Source text: For organotypic cultures, sagittal hippocampal brainslices were taken from wild type mice. Following decapitation, all organs were quickly removed, placed in ice-cold buffer (artificial cerebrospinal fluid (ACSF) [in mmol/L]: NaCl 125, KCl 2.4, NaHCO326, NaH2PO4 1.25, glucose 25, CaCl2 2 [0.5 mmol/L for dissection], MgCl2 1 [5 mmol/L for dissection]; bubbled with carbogen) for brain, and for all other organs Ringers buffer. For brain, to reduce the rate of cell death most dissections were carried out with high-magnesium (5 mmol/L)/low-calcium (0.5 mmol/L) ACSF. The brain was hemisected and a section was cut away by hand that was approximately 100° from the midline surface. The hemispheres were then mounted with superglue on to a slicing stage and 300 μm hippocampal slices were cut with a vibroslicer and transferred to an incubating chamber with circulating ACSF (bubbled with carbogen). All other organs were treated similarly but Ringer's buffer was used instead of ACSF. For the heart and spleen, cross sectional slices going fully across the organ were taken. The slices were incubated at 35° C. for approximately 1 hrs before the incubator was switched off and the bath was allowed to cool to room temperature. […]

Hepg2s spheroids = Hepg2s spheroids made by hanging drop technique, necrotic core formation; assay type: cell-based, human
Protocol: Multi-cellular spheroids were prepared using a hanging drop method. A stock solution of methylcellulose (MC) was prepared by dissolving 1.2 g of MC powder (4000 cP, Sigma-Aldrich) in 100 ml of DMEM. The solution was magnetically stirred overnight at 4° C. and subsequently centrifuged at 4,000 g for 3 hrs. HepG2s cells were re-suspended in cell medium containing 20% MC stock solution at a concentration of 20,000 cells per 50 μL spheroid. 50 μL drops were subsequently pipetted onto a non-adherent petri dish (Greiner) and, replacing the lid, the dish was turned upside-down and incubated overnight at 37° C. Multi-cellular spheroids were harvested individually with a wide bore pipette or collectively by adding 5 mL cell medium to the dish, collecting and centrifuging the suspension at 300 g for 5 min and resuspending the spheroids in cell medium. Spheroids were then cultured for 5 days in 48 well plates containing 2.5% agarose gel and 400 μl cell medium. EGTA was added at 0 and 2500 μM to both the spheroid pre-cursor solution and the cell culture medium. At day 3 and day 5 the spheroids were imaged and assessed.
Next, 3D cell culture was employed using Hepg2 cells and a standard hanging drop protocol of spheroid production. […] Necrotic cores disrupt physiology, and a challenge is vasculature formation faster than necrotic core formation. […]

O=C(O)CN(CCOCCOCCN(CC(=O)O)CC(=O)O)CC(=O)O [EGTA, ethylene glycol-bis(β-aminoethyl ether)-N,N,N′,N′-tetraacetic acid]
E. coli death / colony forming units (CFU) following oxidative stress (E. coli): death is prevented
movement defects post stress (C. elegans): reduced movement defects
D. melanogaster death / survival following cold/freeze stress (D. melanogaster): death is prevented; also recorded: significant protective effect
% of necrotic cells (PI stain) relative to all cells (DAPI stain) [1]: necrosis cell death is prevented; also recorded: marked improvement in all 3 tissue types
necrotic core formation (Hepg2s spheroids; hanging drop Hepg2s spheroids, 2500 μM EGTA or 5000 μM EGTA, 5 days): no necrotic core even after 5 days
necrotic core formation (Hepg2s spheroids; hanging drop Hepg2 spheroids, 20,000 cells, EGTA at 250 and 500 mM, day 5): no necrotic cores being visible
